In ChEMBL document CHEMBL1255235, “Molecular basis for resistance of acanthamoeba tubulins to all major classes of antitubulin compounds” (Antimicrob Agents Chemother, 2008):

How the values were obtained:
[1] = Inhibition of tubulin in Acanthamoeba polyphaga by alamar blue assay
[2] = Inhibition of tubulin in Acanthamoeba castellanii by alamar blue assay
[3] = Inhibition of tubulin in rabbit corneal cells by alamar blue assay; format: cell-based; details: Oryctolagus cuniculus, Cornea
Acanthamoeba polyphaga = assay: Antimicrobial activity against Acanthamoeba polyphaga; format: functional, organism-based
Acanthamoeba castellanii = assay: Antimicrobial activity against Acanthamoeba castellanii; format: functional, organism-based
Toxoplasma gondii = assay: Antimicrobial activity against Toxoplasma gondii; format: functional, organism-based
Leishmania sp. = assay: Antimicrobial activity against Leishmania sp.; format: functional, organism-based

SMILES	IC50 [1] [µM]	IC50 [2] [µM]	IC50 [3] [µM]	IC50 (Acanthamoeba polyphaga) [µM]	IC50 (Acanthamoeba castellanii) [µM]	IC50 (Toxoplasma gondii) [µM]	IC50 (Leishmania sp.) [µM]
CCCSc1ccc2[nH]c(NC(=O)OC)nc2c1 [ALBENDAZOLE]	> 47	> 47	0.7				
N=C(NCCCCCCNC(=N)NC(=N)Nc1ccc(Cl)cc1)NC(=N)Nc1ccc(Cl)cc1 [CHLORHEXIDINE]				3.12	1.56		
COc1cc2c(c(OC)c1OC)-c1ccc(OC)c(=O)cc1[C@@H](NC(C)=O)CC2 [COLCHICINE]	2500	2.5	2.4				
CCCN(CCC)c1c([N+](=O)[O-])cc(S(N)(=O)=O)cc1[N+](=O)[O-] [ORYZALIN]	> 100	> 100	> 500				
CC(=O)O[C@H]1C(=O)[C@@]2(C)[C@H]([C@H](OC(=O)c3ccccc3)[C@]3(O)C[C@H](OC(=O)[C@H](O)[C@@H](NC(=O)c4ccccc4)c4ccccc4)C(C)=C1C3(C)C)[C@]1(OC(C)=O)CO[C@@H]1C[C@@H]2O [PACLITAXEL]	> 10	> 10	0.04			1	0.035
CC[C@]1(O)C[C@@H]2CN(CCc3c([nH]c4ccccc34)[C@@](C(=O)OC)(c3cc4c(cc3OC)N(C)[C@H]3[C@@](O)(C(=O)OC)[C@H](OC(C)=O)[C@]5(CC)C=CCN6CC[C@]43[C@@H]65)C2)C1 [VINBLASTINE]	0.68	0.68	0.017				
